Assay results: patent US11975105B2 (EMPROS PHARMA AB, priority 2014, dated 2024)
Where two headings read alike, the source gives them in different places.

Tests used:
[1] = cited from earlier work; for frequency of side effects, comparative: human, in vivo
[2] = pH dependent degradation when solubility from a powder was investigated at 37° C.; assay type: physicochemical; conditions: FIG. 1A-B
[3] = cited from earlier work; for additional weight loss relative to placebo: at one year
[4] = cited from earlier work; for fraction of the dose absorbed: oral administration
[5] = cited from earlier work

Question: Which results are given for `CCCCCCCCCCCC(CC1OC(=O)[C@H]1CCCCCC)OC(=O)C(CC(C)C)NC=O` (stereo in doubt) [orlistat, (S)—((S)-1-((2S,3S)-3-Hexyl-4-oxooxetan-2-yl)tridecan-2-yl) 2-formamido-4-methylpentanoate]?
Answer: patients complaining about GI side-effects (diarrhea, oily spottings, fecal urgency) ([1]; clinical trials): ≥ 25%; pH dependent degradation [2]: A similar tendency; additional weight loss relative to placebo [3]: ~3%; relative weight loss ([3]; best case scenario, placebo 6%): 10%; plasma exposure ([4]; conventional oral dosage form): < 5 ng/mL; fraction of the dose absorbed [4]: < 3%; log P [5]: 8.5; solubility in water [5]: practically insoluble in water; log P ([5]; listed as Orlistat): 8.4

Question: For `C[C@H]1CNCCc2ccc(Cl)cc21` [lorcaserin], which “additional weight loss relative to placebo” value [3] is on record?
Answer: ~3%

Question: What about the “decrease of body weight more than placebo” value ([3]; human, in vivo) of the same compound?
Answer: about 3.2 kg

Question: What about the “decrease of body weight more than placebo, of initial body weight” value ([3]; human, in vivo) of the same compound?
Answer: about 3.2%

Question: With `CCCCCCCCCCCCCCCCOc1nc2ccc(C)cc2c(=O)o1` [cetilistat] as the compound, how does the “frequency of side effects, comparative” value [1] read?
Answer: much lower frequency of side effects

Question: What does the source list for `OCC(CO)N[C@H]1C[C@](O)(CO)[C@@H](O)[C@H](O)[C@H]1O` [voglibose]?
Answer: frequency of side effects, comparative [1]: lower frequency of GI side effects compared to acarbose; fraction of the dose absorbed [4]: negligibly absorbed

Question: Which “fraction of the dose absorbed” value [4] does the source give for `OCCN1C[C@H](O)[C@@H](O)[C@H](O)[C@H]1CO` [miglitol] here?
Answer: 100%
